Source: ChEMBL document CHEMBL1136069, “Urea small molecule agonists on mouse melanocortin receptors” (Bioorg Med Chem Lett, 2003)

Tests used:
Melanocortin receptor 4 = Melanocortin receptor 4 (Mus musculus, UniProt P56450); test: Agonist activity on mouse melanocortin 4 receptor (mMC4R) stably expressed in […] cells; type: functional, cell-based
Melanocortin receptor 5 = Melanocortin receptor 5 (Mus musculus, UniProt P41149); test: Agonist activity on mouse melanocortin 5 receptor (mMC5R) stably expressed in […] cells; type: functional, cell-based
Sequence of Melanocortin receptor 5 (P41149 whole entry): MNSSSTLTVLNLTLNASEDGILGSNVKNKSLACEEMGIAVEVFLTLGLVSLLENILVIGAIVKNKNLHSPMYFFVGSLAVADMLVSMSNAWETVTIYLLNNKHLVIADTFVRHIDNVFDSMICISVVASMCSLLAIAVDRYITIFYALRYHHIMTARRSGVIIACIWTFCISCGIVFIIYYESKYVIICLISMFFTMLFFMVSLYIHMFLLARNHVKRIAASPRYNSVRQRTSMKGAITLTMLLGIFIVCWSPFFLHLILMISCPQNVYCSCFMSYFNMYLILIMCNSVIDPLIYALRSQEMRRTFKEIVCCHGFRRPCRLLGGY

Melanocortin receptor 3 = Melanocortin receptor 3 (Mus musculus, UniProt P33033); test: Agonist activity on mouse Melanocortin 3 receptor (mMC3R) stably expressed in HEK cells; type: functional, cell-based, HEK293
Sequence of Melanocortin receptor 3 (P33033 whole entry): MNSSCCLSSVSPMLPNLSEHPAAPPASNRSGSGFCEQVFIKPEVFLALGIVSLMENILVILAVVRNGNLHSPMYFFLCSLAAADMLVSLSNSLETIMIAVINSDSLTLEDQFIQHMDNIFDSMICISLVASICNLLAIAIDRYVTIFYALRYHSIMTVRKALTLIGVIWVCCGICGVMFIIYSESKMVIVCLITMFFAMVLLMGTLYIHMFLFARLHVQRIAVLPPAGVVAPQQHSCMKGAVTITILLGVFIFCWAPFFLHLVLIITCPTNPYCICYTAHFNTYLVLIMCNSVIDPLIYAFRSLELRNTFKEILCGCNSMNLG

[1] = biological target: Melanocyte-stimulating hormone receptor (Mus musculus, UniProt Q01727); test: Agonist activity on mouse melanocortin 1 receptor (mMC1R) stably expressed in HEK cells; type: functional, cell-based, HEK293
Sequence of Melanocyte-stimulating hormone receptor (Q01727 whole entry): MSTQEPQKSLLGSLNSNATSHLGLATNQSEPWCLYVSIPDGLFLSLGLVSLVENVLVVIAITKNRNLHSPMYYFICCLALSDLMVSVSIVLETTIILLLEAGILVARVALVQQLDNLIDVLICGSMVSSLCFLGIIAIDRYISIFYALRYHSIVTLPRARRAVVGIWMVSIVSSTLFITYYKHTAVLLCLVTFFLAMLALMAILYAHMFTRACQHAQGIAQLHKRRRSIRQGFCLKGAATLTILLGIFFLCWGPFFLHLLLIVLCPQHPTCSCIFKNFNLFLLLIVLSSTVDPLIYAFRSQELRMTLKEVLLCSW

Sequence of Melanocortin receptor 4 (P56450 whole entry): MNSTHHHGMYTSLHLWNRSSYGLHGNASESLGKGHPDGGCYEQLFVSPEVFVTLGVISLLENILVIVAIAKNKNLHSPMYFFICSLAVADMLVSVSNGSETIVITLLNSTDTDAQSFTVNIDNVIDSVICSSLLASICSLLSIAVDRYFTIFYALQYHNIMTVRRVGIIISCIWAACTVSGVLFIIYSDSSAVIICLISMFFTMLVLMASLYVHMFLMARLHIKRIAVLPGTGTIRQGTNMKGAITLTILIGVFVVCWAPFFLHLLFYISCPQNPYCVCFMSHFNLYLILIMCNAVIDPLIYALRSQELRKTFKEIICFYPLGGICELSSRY

Row | Compound | EC50 (Melanocortin receptor 4) [µM] | EC50 (Melanocortin receptor 5) [µM] | EC50 (Melanocortin receptor 3) [µM] | EC50 [1] [µM]
1 | NCCCCCNC(=O)[C@H](Cc1c[nH]c2ccccc12)NC(=O)NCc1ccccc1 | > 100 | 20 | > 100 | 14.8
2 | NCCCCNC(=O)[C@H](Cc1c[nH]c2ccccc12)NC(=O)NCCc1ccccc1 | > 100 | > 100 | > 100 | > 100
3 | Cc1cccc(CNC(=O)[C@H](Cc2c[nH]c3ccccc23)NC(=O)NCc2ccccc2)c1 | > 100 | > 100 | > 100 | 28
4 | NCCCCNC(=O)[C@H](Cc1c[nH]c2ccccc12)NC(=O)NN1CCc2ccccc2C1 | 3.4 | 4.9 | 1.7 | 7.9
5 | NCCCCNC(=O)[C@H](Cc1ccc(OCc2ccccc2)cc1)NC(=O)NCc1ccccc1 | > 100 | 14.4 | > 100 | 20.5
6 | NCCCCNC(=O)[C@@H](Cc1c[nH]c2ccccc12)NC(=O)NCc1ccccc1 | 23.7 | 32.8 | 100 | 42.4
7 | CC1CCN(CNC(=O)[C@H](Cc2c[nH]c3ccccc23)NC(=O)NCc2ccccc2)CC1 | > 100 | 8.2 | 4.4 | 5.2

Results, then the molecule that gave them:

Row | EC50 (Melanocortin receptor 4) [µM] | EC50 (Melanocortin receptor 5) [µM] | EC50 (Melanocortin receptor 3) [µM] | EC50 [1] [µM] | Compound
8 | 0.4 | 4.9 | 10.7 | 0.4 | NCc1ccc(NC(=O)[C@H](Cc2c[nH]c3ccccc23)NC(=O)NCc2ccccc2)cc1
9 | > 100 | > 100 | > 100 | > 100 | NCCCCNC(=O)[C@H](CCc1ccccc1)NC(=O)NCc1ccccc1
10 | > 100 | 39.9 | > 100 | 51.2 | NCCCNC(=O)[C@H](Cc1c[nH]c2ccccc12)NC(=O)NCc1ccccc1
11 | > 100 | > 100 | > 100 | 22.3 | NCCCCCCNC(=O)[C@H](Cc1c[nH]c2ccccc12)NC(=O)NCc1ccccc1
12 | 2.8 | 8.2 | 4.4 | 5 | NCCCCNC(=O)[C@H](Cc1c[nH]c2ccccc12)NC(=O)NC1CCN(Cc2ccccc2)CC1
13 | 23.7 | 30.5 | > 100 | 55 | NCCCCNC(=O)[C@H](Cc1c[nH]c2ccccc12)NC(=O)NCc1ccccc1
14 | 100 | 28.9 | 100 | 20 | NCCCCNC(=O)[C@H](Cc1c[nH]c2ccccc12)NC(=O)NN1CCC(Cc2ccccc2)CC1
